Test results reported in PMC5365662, “A Short Double-Stapled Peptide Inhibits Respiratory Syncytial Virus Entry and Spreading” (Antimicrobial Agents and Chemotherapy, 2017).
“Also recorded” adds a separate entry of the source. Bridge positions count the residues as written; N and C are the ends. Square brackets hold non-standard residues; d marks the D form. Peptide text beside a SMILES is read from it. R5 = C=CCCC[C@@](C)(N)C(=O)O; S5 = C=CCCC[C@](C)(N)C(=O)O

Legend:
[1] = system: rHRSV-Luc; assay: RSV infection of mice, intranasal treatment, in vivo luminescence; conditions: BALB/c, n = 4
Protocol: In order to track the infection, we used the recombinant virus rHRSV-Luc, which was previously shown to allow in vivo imaging studies of RSV replication and spreading and constitutes a powerful and convenient tool for the evaluation of drug efficiency against RSV in the mouse model ([24]). […] Mice were anesthetized at day 3 p.i. and observed alive using the IVIS imaging system 5 min after i.n. injection of D-luciferin. […] At day 3 p.i., a second dose of the peptide was administered to the mice, and the bioluminescence was measured at day 5 p.i. […]
Female BALB/c mice were purchased from the Centre d'Elevage R. Janvier (Le Genest Saint-Isle, France) and were used at 8 weeks of age. […] Luminescence measurement was then performed at day 5 p.i.
Mice were anesthetized, and luminescence was measured 5 min following i.n. injection of 50 μl of PBS containing 0.75 mg kg^−1 of body weight D-luciferin (Sigma). Photon emission of mock-infected and rHRSV-Luc-infected mice was measured using the IVIS 200 imaging system (Xenogen Corp.). […] Digital false-color photon emission images of mice were generated, and photons were counted within a constant region of interest corresponding to the surface of the chest encompassing the whole-airway area. Photon emission was measured as radiance in photons per second per square centimeter per steradian (p s^−1 cm^−2 sr^−1).

[2] = assay type: in vivo; conditions: noninfected mice, same i.n. protocol, blood 1 month after first inoculation, ELISA, data not shown
Protocol: To investigate this further, peptide 4ca was administered to noninfected animals according to the same protocol. The blood of mice was collected 1 month after the first inoculation, and the presence of anti-4ca antibodies in the sera of these animals was analyzed by enzyme-linked immunosorbent assay (ELISA).

[3] = Temperature-dependent CD (T ramp), oligomeric state; assay type: physicochemical; conditions: 25 and 50 μM peptide, 25°C to 90°C in 5°C increments
Protocol: The temperature was increased from 25°C to 90°C in 5°C increments. […] Next, HEp-2 cells were infected with a recombinant RSV expressing the mCherry reported gene ([24]), and the inhibitory activity of the double-stapled peptides was quantified by fluorescence readout.
B) […]. The cell holding the sample was heating at the desired temperature and the CD spectra was measured as described in material and methods. The temperature was increased from 25 °C to 90 °C by 5 °C increments.
Panel C) and D) are the CD curve performed at 25 °C prior to increase the temperature (unheated) and after letting the sample heated at 90 °C (heated) cool down to 25 °C. […]

[4] = Proteolytic stability assay, chymotrypsin; assay type: in vitro ADME; conditions: chymotrypsin (isolated protease); 10 μl peptide 0.29 mM in 990 μl 100 mM Tris-HCl pH 8.0, 10 mM CaCl2; 10 μl chymotrypsin 50 μg/ml; 25°C; LC-MS of intact peptide, exponential decay fit; 3 experiments
Protocol: This is an important parameter to assess for the development of peptide therapeutics. Peptides 4bb, 4ca, and 4a, and the unstapled analog peptide 4, as well as both SAH-RSVFBD isomers, were treated with chymotrypsin or trypsin, and the samples were analyzed by LC/MS to quantify the reaction products over time. […] In comparison, both SAH-RSVFBD isomers were more susceptible to proteolytic degradation, with half-lives of approximately 7 h and 5 min against chymotrypsin and trypsin, respectively.
In vitro proteolytic degradation was measured via LC-MS using an Agilent Infinity 1280 UHPLC system coupled to an Agilent quadrupole time of flight (QTOF) 6530 instrument with an Agilent Jet Stream electrospray ionization (AJS ESI) source (all from Agilent Technologies, Waldbronn, Germany). Five microliters of digested sample was injected onto a C18 column (Zorbax Eclipse Plus RRHD, 1.8 μm, 2.1 by 100 mm; Agilent Technologies, Waldbronn, Germany) equilibrated with solvent A (5% acetonitrile, 0.2% formic acid) and eluted with a flow rate of 0.4 ml/min over a 5 to 95% gradient of solvent B (95% acetonitrile, 0.2% formic acid) in 5 min, followed by 1.5 min at 95% and 0.5 min posttime. The AJS ESI source was operated with a capillary voltage of 4,000 V and a nozzle voltage of 600 V with a drying gas temperature of 325°C and flow rate of 10 liters/min, nebulizing gas pressure of 20 lb/in^2, and a sheath gas temperature of 300°C and flow rate of 11 liters/min. Mass spectra were acquired in the positive-ion mode from 100 to 3,200 m/z at a rate of 1 scan per second in extended dynamic range (2 GHz) mode. The fragmentor, skimmer, and octopole RF voltages were set to 200, 60, and 750 V, respectively. Data were acquired and analyzed with the Agilent MassHunter Workstation (version B.05).
Peptide digestion was performed as follows: 10 μl of peptide at 0.29 mM in 50:50 acetonitrile-water was dissolved in 990 μl 100 mM Tris-HCl (pH 8.0) with 10 mM CaCl2. Following measurement of the undigested (t0) sample, 10 μl of chymotrypsin at 50 μg/ml in 100 mM Tris-HCl (pH 8.0) with 10 mM CaCl2 was added, and the sample was vortexed and placed immediately in the autosampler, set to 25°C. The level of intact peptide was quantified by serial injection over time. Integration of the intact peptide compound chromatogram was performed using the Agilent Molecular Feature Extraction (MFE) algorithm. The value of the fit at t = 0 min was used to calculate the percentage of the intact peptide at each point as follows: Percent intact (t) = [Vol (t)/Volt0] × 100, where Vol is the total volume calculated using Find Compounds by Molecular Feature and Volt0 is the value of the fit at time t = 0. A plot of the intact peptide MFE peak area over time gave an exponential decay curve, from which the half-life was determined using MatLab […].

## CC[C@H](C)[C@@H]1NC(=O)[C@H](Cc2ccccc2)NC(=O)[C@@](C)(NC(=O)[C@H](CC(C)C)NC(=O)[C@H](CO)NC(=O)[C@]2(C)CCCC=CCCC[C@@](C)(NC(=O)[C@H](CCC(=O)O)NC(C)=O)C(=O)N[C@@H]([C@@H](C)CC)C(=O)N[C@@H](CC(N)=O)C(=O)N2)CCCC=CCCC[C@@](C)(C(=O)N[C@@H](CO)C(=O)N[C@@H](CC(=O)O)C(=O)N[C@@H](CCC(=O)O)C(=O)N[C@@H](CC(C)C)C(=O)N[C@@H](CC(C)C)C(=O)N[C@@H](Cc2c[nH]cn2)C(=O)N[C@@H](CC(N)=O)C(=O)N[C@H](C(N)=O)C(C)C)NC(=O)[C@H](CCCNC(=N)N)NC1=O [Peptide 4ca] (Ac-E[R5]IN[S5]SL[S5]FIR[S5]SDELLHNV-NH2; staple 2-5, 8-12)
[1]; i.n. 50 μl at 50 μM in PBS at day 0 (10 min before rHRSV-Luc 5 × 10^4 PFU) and day 3, day 5 p.i.
  decrease of viral infection versus untreated mice (bioluminescence): 3 fold
[1]; i.n. 50 μl at 50 μM in PBS, rHRSV-Luc 5 × 10^4 PFU, day 3 p.i.
  bioluminescence in snout and lungs versus control mice: clearly reduced
[2]
  antibodies specific to 4ca in sera (anti-IgG1, anti-IgG2a, anti-IgA): no antibodies specific to 4ca could be detected
[3]
  conformational change / aggregation on temperature ramping: No significant conformational change; also recorded: does not aggregate
[4]
  half-life at 2.9 µM: 180 h
